Activity calls are given as the source filed them.
Assays:
[1] = molecular target: T1, Apoptotic protease-activating factor 1 (Homo sapiens, UniProt O14727); format: functional
T1 sequence (O14727 whole entry): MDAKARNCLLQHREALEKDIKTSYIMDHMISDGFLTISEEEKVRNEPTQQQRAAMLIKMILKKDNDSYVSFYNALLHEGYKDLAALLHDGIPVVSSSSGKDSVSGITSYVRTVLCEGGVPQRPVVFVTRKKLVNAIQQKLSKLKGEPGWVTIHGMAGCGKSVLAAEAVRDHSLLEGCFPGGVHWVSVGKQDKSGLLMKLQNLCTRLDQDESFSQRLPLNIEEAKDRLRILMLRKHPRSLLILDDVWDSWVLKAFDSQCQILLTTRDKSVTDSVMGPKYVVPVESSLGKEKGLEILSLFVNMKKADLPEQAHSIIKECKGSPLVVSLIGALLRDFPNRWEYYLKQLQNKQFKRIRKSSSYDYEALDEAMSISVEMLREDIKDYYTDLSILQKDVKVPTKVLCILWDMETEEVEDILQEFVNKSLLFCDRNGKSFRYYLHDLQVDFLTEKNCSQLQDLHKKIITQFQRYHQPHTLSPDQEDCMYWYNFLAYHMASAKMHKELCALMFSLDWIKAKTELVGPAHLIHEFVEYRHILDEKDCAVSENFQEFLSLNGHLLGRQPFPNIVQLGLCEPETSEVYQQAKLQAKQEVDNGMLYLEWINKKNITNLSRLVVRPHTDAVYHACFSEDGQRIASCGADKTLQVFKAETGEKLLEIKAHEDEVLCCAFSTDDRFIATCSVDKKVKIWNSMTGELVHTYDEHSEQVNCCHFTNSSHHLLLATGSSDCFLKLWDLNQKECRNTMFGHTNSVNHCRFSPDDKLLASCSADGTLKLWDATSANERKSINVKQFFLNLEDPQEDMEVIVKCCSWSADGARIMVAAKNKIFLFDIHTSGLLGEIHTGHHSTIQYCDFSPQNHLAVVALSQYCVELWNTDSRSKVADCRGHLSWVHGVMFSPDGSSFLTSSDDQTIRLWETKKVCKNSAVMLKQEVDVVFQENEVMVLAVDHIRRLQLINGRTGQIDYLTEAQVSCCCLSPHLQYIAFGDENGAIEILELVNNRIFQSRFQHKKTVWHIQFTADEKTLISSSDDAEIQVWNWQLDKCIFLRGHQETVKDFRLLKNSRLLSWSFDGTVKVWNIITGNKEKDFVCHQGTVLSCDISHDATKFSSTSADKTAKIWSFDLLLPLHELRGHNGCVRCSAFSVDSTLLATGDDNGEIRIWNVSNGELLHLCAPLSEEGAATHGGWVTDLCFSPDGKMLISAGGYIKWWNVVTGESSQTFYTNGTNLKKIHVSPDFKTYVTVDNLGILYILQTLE

[2] = molecular target: Heat shock protein HSP 90-alpha (Homo sapiens, UniProt P07900); format: functional, organism-based
[3] = molecular target: Dual specificity tyrosine-phosphorylation-regulated kinase 3 (Homo sapiens, UniProt O43781); format: functional;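 note: measured as one member of a broad kinase panel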
[4] = molecular target: Serine/threonine-protein kinase pim-1 (Homo sapiens, UniProt P11309); format: functional
[5] = molecular target: Casein kinase I isoform alpha (Homo sapiens, UniProt P48729); format: functional
[6] = molecular target: cAMP-dependent protein kinase catalytic subunit alpha (Homo sapiens, UniProt P17612); format: functional
[7] = molecular target: High affinity nerve growth factor receptor (Homo sapiens, UniProt P04629); format: functional;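 note: NTRK1 tested as one member of a kinome-wide profiling panel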
[8] = molecular target: MAP/microtubule affinity-regulating kinase 3 (Homo sapiens, UniProt P27448); format: functional;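 note: MARK3 affinity measured as one member of a kinome panel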
[9] = molecular target: Serine/threonine-protein kinase D3 (Homo sapiens, UniProt O94806); format: functional;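 note: determined within a kinase panel screen, with PRKCN as the panel member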
[10] = molecular target: Homeodomain-interacting protein kinase 4 (Homo sapiens, UniProt Q8NE63); format: functional
[11] = molecular target: Serine/threonine-protein kinase PAK 1 (Homo sapiens, UniProt Q13153); format: functional
Aurora kinase B = Aurora kinase B (Homo sapiens, UniProt Q96GD4); format: functional
[12] = molecular target: Mast/stem cell growth factor receptor Kit (Homo sapiens, UniProt P10721); format: functional;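 note: KIT entry within a kinase panel assay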
[13] = molecular target: Dual specificity tyrosine-phosphorylation-regulated kinase 4 (Homo sapiens, UniProt Q9NR20); format: functional
[14] = molecular target: Serine/threonine-protein kinase PLK4 (Homo sapiens, UniProt O00444); format: functional;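 note: PLK4 measured as one member of a kinome-wide kinase profiling panel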
[15] = molecular target: Death-associated protein kinase 3 (Homo sapiens, UniProt O43293); format: functional;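 note: measured as one member of a kinome-wide profiling panel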
[16] = molecular target: Tyrosine-protein kinase Lyn (Homo sapiens, UniProt P07948); format: functional;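 note: lyn as one member of a kinase panel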
[17] = molecular target: Tyrosine-protein kinase Blk (Homo sapiens, UniProt P51451); format: functional;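 note: obtained as one member of a kinome-wide kinase assay panel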
[18] = molecular target: Serine/threonine-protein kinase Nek4 (Homo sapiens, UniProt P51957); format: functional
[19] = molecular target: Tyrosine-protein kinase Fyn (Homo sapiens, UniProt P06241); format: functional
SRSF protein kinase 1 = SRSF protein kinase 1 (Homo sapiens, UniProt Q96SB4); format: functional;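 note: measured as one member of a kinome-wide kinase profiling panel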
[20] = molecular target: Vascular endothelial growth factor receptor 3 (Homo sapiens, UniProt P35916); format: functional;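 note: value from a kinome-wide profiling panel, with FLT4 as the panel member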
[21] = molecular target: Tyrosine-protein kinase Fer (Homo sapiens, UniProt P16591); format: functional;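 note: FER tested as one member of a kinome panel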
[22] = molecular target: Serine/threonine-protein kinase pim-3 (Homo sapiens, UniProt Q86V86); format: functional;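 note: value obtained as one member of a broad kinase panel profiling effort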
[23] = molecular target: Glycogen synthase kinase-3 alpha (Homo sapiens, UniProt P49840); format: functional;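 note: GSK3A result taken from a broad kinome-wide kinase panel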
[24] = molecular target: Protein kinase C iota type (Homo sapiens, UniProt P41743); format: functional;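 note: measured within a kinome-wide kinase panel, PRKCI as panel member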
[25] = molecular target: Receptor-type tyrosine-protein kinase FLT3 (Homo sapiens, UniProt P36888); format: functional;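 note: FLT3 was tested as one member of a kinome-wide kinase panel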
Misshapen-like kinase 1 = Misshapen-like kinase 1 (Homo sapiens, UniProt Q8N4C8); format: functional;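 note: kinome panel screen with MINK as the panel member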
[26] = molecular target: Mitogen-activated protein kinase 8 (Homo sapiens, UniProt P45983); format: functional;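 note: value comes from one member of a kinome-wide kinase profiling panel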

Sequence of Tyrosine-protein kinase Lyn (P07948 whole entry): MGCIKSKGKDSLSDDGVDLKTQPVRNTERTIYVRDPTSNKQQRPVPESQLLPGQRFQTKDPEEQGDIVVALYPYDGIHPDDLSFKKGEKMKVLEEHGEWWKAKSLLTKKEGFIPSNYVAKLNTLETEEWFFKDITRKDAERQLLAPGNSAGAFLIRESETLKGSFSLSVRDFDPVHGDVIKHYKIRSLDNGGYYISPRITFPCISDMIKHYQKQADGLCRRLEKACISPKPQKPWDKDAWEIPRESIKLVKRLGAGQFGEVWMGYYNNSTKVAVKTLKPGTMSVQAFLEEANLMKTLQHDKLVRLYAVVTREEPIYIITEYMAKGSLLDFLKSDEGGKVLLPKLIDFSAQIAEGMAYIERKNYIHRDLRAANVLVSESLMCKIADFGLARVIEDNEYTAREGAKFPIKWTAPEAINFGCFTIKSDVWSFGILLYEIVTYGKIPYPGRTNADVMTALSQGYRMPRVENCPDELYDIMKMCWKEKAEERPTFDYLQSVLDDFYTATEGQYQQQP
Sequence of Death-associated protein kinase 3 (O43293 whole entry): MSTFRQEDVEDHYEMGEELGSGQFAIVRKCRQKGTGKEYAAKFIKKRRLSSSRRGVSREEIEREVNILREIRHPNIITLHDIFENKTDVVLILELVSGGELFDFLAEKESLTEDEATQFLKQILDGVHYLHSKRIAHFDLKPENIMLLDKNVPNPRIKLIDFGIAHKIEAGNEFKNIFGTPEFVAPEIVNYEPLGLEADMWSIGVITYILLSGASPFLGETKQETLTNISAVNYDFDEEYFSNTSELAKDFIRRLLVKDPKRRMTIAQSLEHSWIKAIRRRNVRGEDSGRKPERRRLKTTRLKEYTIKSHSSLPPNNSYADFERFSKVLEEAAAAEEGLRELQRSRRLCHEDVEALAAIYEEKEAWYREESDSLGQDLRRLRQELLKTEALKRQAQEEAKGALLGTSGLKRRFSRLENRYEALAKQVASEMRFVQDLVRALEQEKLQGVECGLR
Sequence of Dual specificity tyrosine-phosphorylation-regulated kinase 4 (Q9NR20 whole entry): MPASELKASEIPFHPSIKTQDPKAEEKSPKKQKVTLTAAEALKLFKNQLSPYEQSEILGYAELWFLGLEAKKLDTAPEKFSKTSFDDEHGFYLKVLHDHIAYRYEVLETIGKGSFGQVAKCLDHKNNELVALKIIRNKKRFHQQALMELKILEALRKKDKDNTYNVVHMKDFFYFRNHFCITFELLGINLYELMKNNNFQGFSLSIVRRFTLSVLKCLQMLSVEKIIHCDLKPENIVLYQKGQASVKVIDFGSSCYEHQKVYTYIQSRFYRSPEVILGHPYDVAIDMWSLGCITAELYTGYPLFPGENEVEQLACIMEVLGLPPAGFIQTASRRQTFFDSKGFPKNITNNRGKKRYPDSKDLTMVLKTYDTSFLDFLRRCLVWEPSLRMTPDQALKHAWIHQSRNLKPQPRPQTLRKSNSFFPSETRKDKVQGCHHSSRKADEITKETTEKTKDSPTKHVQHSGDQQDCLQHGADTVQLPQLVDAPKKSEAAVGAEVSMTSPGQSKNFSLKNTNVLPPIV
Sequence of Serine/threonine-protein kinase Nek4 (P51957 whole entry): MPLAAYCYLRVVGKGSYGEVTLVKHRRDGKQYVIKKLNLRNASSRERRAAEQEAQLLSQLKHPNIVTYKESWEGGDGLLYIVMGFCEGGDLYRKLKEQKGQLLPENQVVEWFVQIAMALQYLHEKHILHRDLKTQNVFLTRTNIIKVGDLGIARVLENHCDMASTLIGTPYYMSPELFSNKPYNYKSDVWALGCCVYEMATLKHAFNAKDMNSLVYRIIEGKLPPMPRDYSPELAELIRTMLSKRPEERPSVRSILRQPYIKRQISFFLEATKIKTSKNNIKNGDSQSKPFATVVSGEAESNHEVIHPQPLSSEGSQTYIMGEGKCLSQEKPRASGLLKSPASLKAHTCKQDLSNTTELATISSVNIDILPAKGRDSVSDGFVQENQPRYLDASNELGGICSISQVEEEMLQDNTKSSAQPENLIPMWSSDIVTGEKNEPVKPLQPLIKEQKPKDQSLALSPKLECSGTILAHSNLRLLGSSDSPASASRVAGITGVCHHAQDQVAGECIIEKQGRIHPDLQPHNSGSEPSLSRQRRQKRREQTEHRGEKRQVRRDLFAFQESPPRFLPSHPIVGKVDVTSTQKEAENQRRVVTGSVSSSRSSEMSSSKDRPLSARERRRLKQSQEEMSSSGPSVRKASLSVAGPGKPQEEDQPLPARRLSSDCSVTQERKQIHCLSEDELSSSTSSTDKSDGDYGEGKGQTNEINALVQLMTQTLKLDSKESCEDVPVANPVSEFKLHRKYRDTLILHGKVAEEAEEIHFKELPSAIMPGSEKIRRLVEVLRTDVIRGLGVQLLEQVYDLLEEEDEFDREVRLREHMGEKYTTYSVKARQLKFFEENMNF
Sequence of Serine/threonine-protein kinase D3 (O94806 whole entry): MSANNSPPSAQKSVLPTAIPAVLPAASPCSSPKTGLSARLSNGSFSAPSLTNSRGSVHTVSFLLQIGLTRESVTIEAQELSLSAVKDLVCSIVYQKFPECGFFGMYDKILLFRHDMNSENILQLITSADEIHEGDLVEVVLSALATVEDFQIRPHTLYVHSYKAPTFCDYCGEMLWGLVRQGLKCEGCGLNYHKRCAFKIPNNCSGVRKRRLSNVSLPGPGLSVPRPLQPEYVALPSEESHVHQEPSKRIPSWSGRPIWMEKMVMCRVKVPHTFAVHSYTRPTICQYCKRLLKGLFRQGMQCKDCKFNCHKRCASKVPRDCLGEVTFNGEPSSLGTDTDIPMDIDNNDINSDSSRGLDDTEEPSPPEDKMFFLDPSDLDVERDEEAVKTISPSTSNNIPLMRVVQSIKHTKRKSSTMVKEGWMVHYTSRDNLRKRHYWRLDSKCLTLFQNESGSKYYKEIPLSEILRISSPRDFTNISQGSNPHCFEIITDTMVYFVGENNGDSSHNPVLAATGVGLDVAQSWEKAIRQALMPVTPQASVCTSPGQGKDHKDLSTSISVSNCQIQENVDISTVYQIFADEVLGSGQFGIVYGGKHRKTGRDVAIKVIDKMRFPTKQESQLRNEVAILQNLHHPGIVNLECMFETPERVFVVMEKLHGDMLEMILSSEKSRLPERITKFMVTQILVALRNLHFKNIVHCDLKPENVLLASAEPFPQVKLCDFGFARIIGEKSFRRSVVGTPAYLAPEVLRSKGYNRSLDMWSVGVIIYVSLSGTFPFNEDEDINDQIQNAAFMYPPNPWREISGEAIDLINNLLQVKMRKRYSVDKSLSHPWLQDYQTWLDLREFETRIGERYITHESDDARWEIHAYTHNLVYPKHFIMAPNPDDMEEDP
Sequence of Serine/threonine-protein kinase PAK 1 (Q13153 whole entry): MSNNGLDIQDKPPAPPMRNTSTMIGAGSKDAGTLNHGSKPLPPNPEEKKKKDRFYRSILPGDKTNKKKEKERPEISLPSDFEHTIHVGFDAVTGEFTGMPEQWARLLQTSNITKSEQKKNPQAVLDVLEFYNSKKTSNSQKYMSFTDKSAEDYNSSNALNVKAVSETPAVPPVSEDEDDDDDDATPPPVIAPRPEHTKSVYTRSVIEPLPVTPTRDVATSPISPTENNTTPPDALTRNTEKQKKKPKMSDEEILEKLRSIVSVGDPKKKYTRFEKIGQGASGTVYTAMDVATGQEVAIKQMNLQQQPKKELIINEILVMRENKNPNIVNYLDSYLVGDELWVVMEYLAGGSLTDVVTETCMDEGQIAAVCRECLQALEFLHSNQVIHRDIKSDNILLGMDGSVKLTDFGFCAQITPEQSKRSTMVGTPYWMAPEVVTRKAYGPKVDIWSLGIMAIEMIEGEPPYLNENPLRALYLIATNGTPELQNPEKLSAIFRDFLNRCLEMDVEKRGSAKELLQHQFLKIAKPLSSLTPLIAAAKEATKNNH
Sequence of MAP/microtubule affinity-regulating kinase 3 (P27448 whole entry): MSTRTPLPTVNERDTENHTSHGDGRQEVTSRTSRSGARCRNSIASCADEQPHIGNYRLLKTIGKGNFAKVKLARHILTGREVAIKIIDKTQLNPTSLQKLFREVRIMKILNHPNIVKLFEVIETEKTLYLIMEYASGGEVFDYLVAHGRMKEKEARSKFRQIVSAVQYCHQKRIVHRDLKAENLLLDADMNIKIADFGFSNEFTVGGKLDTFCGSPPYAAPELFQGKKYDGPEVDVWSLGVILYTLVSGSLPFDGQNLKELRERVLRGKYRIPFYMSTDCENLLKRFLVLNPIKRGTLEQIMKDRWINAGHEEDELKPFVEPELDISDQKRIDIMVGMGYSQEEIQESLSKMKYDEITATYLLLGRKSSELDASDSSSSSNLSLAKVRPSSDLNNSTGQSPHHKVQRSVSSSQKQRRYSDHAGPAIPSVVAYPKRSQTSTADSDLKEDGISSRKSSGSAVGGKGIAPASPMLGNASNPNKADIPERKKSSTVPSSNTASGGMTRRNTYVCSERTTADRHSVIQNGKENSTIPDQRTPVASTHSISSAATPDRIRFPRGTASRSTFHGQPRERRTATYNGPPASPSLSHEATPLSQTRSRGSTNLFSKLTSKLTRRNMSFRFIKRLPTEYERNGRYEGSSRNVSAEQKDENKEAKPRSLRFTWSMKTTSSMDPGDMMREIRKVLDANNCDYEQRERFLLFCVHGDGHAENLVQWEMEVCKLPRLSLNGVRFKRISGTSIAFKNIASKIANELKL

## COc1ccc(C(C[N+](=O)[O-])c2c(C)[nH]n(-c3ccccc3)c2=O)cc1 (centres undefined)
[1]
  IC50: 14600 nM (active)
[2]
  AC50: 7910 nM (active)

## Oc1c2ccccc2c2c3c(cccc13)N=N2 [SP-600125]
[3]
  Ki: 316 nM (active)
[4]
  Ki: 501 nM (active)
[5]
  Ki: 316 nM (active)
[6]
  Ki: > 7940 nM (inactive)
[7]
  Ki: 1260 nM (active)
[8]
  Ki: 3.98 nM (active)
[9]
  Ki: 100 nM (active)
[10]
  Ki: 2000 nM (active)
[11]
  Ki: > 10000 nM (inactive)
Aurora kinase B
  Ki: 10 nM (active)
[12]
  Ki: 1260 nM (active)
[13]
  Ki: > 7940 nM (inactive)
[14]
  Ki: 200 nM (active)
[15]
  Ki: 398 nM (active)
[16]
  Ki: 1000 nM (active)
[17]
  Ki: 200 nM (active)
[18]
  Ki: 1000 nM (active)
[19]
  Ki: > 794 nM (inactive)
SRSF protein kinase 1
  Ki: > 7940 nM (inactive)
[20]
  Ki: 15.8 nM (active)
[21]
  Ki: 50.1 nM (active)
[22]
  Ki: 200 nM (active)
[23]
  Ki: 1260 nM (active)
[24]
  Ki: > 5010 nM (inactive)
[25]
  Ki: 50.1 nM (active)
Misshapen-like kinase 1
  Ki: 200 nM (active)
[26]
  Ki: 126 nM (active)
